According to patent publication US20230021483A1, “[…] […] METHOD AND CLASSIFICATION OF PHARMACEUTICAL COMPONENTS BY USING TRANSCRIPTOMES” (National Institutes of Biomedical Innovation, Health and …, priority 2016, published 2023):

Test system: adjuvant-associated biological themes in LV, SP, LN
Text: A defined sets of genes were selected according to specified criteria (e.g., FC, PA-call, threshold values). Their functional enrichment values were then obtained from TargetMine (Chen, Y. A., Tripathi, L. P. & Mizuguchi, K. PloS one 6, e17844 (2011)) (http://targetmine.mizuguchilab.org/) using the API interface. The following resources were used throughout the analysis via TargetMine Interface (GO, GOSlim, Integrated Pathway, KEGG, Reactome, and the NCI pathway). The Holm-Bonferroni method was used for multiple testing corrections.
Whole organ transcriptome data for each organ from each mouse were analyzed as follows to obtain biological themes for individual samples from each adjuvant-administered group of three mice. […] A set of Pj genes was first defined, where eij/ei(c)>2.0. Biological themes enriched within Pj were then identified using TargetMine (Chen, Y. A. et al., PloS one 6, e17844 (2011)) (http://targetmine.mizuguchilab.org/). Tj denote the resulting list of biological themes, with associated p-values from Fischer's exact test.
Next, the biological themes called by all the individual samples in the group were scored as follows. Having obtained three lists (T1, T2 and T3) for a given experimental condition, a consensus list T of themes was created as T={(t1, p1), (t2, p2), . . . }, where ti is a biological theme that appears in all of T1, T2 and T3, and pi is the smallest of the associated p-values. Only the themes with the p-value of <0.05 were included in T.
To summarize the biological themes in T further, a list of terms considered to be associated with adjuvant activity in general was separately prepared. AT={at1, at2, . . . }, where ati is a pre-selected adjuvant-associated term (e.g., “stress” or “cytokine”). Finally, an enrichment score S for an adjuvant-associated term ati was defined as: S(ati)=Σ−log(pj), where the name of tj in T includes a term ati as a substring and pj is the associated p-value.
This scoring scheme summarizes the relative enrichment of pre-selected adjuvant-associated terms in genes responding to each adjuvant in each organ.

## K3: B class CpG ODN (ATCGACTCTCGAGCGTTCTC), TLR9 ligand (chemistry not given here)
LN, i.d., fold change >2
  tissue damage-associated annotations (cell death, wounding) in LNs: did not induce cell death and wounding in LNs
LV, ID
  IFN alpha, GO annotation line 1 of 5: 0
  IFN alpha, GO annotation line 2 of 5: 0
  IFN alpha: cellular response to interferon-alpha: 0
  IFN alpha: positive regulation of interferon-alpha production: 0
  IFN alpha: regulation of interferon-alpha production: 0
  IFN beta: cellular response to interferon-beta: 0
  IFN beta: interferon-beta production: 0
  IFN beta: positive regulation of interferon-beta production: 0
  IFN beta: regulation of interferon-beta production: 0
  IFN beta: response to interferon-beta: 0
  IFN gamma: cellular response to interferon-gamma: 0
  IFN gamma: interferon-gamma production: 0
  IFN gamma: regulation of interferon-gamma production: 0
  IFN gamma: response to interferon-gamma: 0
  NF-kappa B signaling pathway, GO annotation line 1 of 4: 6.19
  NF-kappa B signaling pathway, GO annotation line 2 of 4: 0
  NF-kappa B signaling pathway, GO annotation line 3 of 4: 0
  NF-kappa B signaling pathway, GO annotation line 4 of 4: 0
  TNF signaling pathway: 14.5
  adaptive immune response, GO annotation line 1 of 5: 0
  adaptive immune response, GO annotation line 2 of 5: 0
  adaptive immune response, GO annotation line 3 of 5: 0
  adaptive immune response, GO annotation line 4 of 5: 0
  adaptive immune response, GO annotation line 5 of 5: 0
  apoptosis, GO annotation line 1 of 8: 15.7
  apoptosis, GO annotation line 2 of 8: 10.1
  apoptosis, GO annotation line 3 of 8: 10.3
  apoptosis, GO annotation line 4 of 8: 0
  apoptosis, GO annotation line 5 of 8: 5.99
  apoptosis, GO annotation line 6 of 8: 3.19
  apoptosis, GO annotation line 7 of 8: 0
  apoptosis, GO annotation line 8 of 8: 0
  cell death, GO annotation line 1 of 9: 18.3
  cell death, GO annotation line 2 of 9: 13.9
  cell death, GO annotation line 3 of 9: 14.9
  cell death, GO annotation line 4 of 9: 10.5
  cell death, GO annotation line 5 of 9: 10.9
  cell death, GO annotation line 6 of 9: 7.25
  cell death, GO annotation line 7 of 9: 6.67
  cell death, GO annotation line 8 of 9: 0
  cell death, GO annotation line 9 of 9: 0
  chemokine, GO annotation line 1 of 4: 0
  chemokine, GO annotation line 2 of 4: 0
  chemokine, GO annotation line 3 of 4: 0
  chemokine, GO annotation line 4 of 4: 0
  chemotaxis, GO annotation line 1 of 11: 0
  chemotaxis, GO annotation line 2 of 11: 0
  chemotaxis, GO annotation line 3 of 11: 0
  chemotaxis, GO annotation line 4 of 11: 0
  chemotaxis, GO annotation line 5 of 11: 0
  chemotaxis, GO annotation line 6 of 11: 0
  chemotaxis, GO annotation line 7 of 11: 0
  chemotaxis, GO annotation line 8 of 11: 0
  chemotaxis, GO annotation line 9 of 11: 0
  chemotaxis, GO annotation line 10 of 11: 0
  chemotaxis, GO annotation line 11 of 11: 0
  cytokine, GO annotation line 1 of 17: 0
  cytokine, GO annotation line 2 of 17: 0
  cytokine, GO annotation line 3 of 17: 0
  cytokine, GO annotation line 4 of 17: 0
  cytokine, GO annotation line 5 of 17: 0
  cytokine, GO annotation line 6 of 17: 0
  cytokine, GO annotation line 7 of 17: 0
  cytokine, GO annotation line 8 of 17: 0
  cytokine, GO annotation line 9 of 17: 0
  cytokine, GO annotation line 10 of 17: 0
  cytokine, GO annotation line 11 of 17: 0
  cytokine, GO annotation line 12 of 17: 0
  cytokine, GO annotation line 13 of 17: 0
  cytokine, GO annotation line 14 of 17: 0
  cytokine, GO annotation line 15 of 17: 0
  cytokine, GO annotation line 16 of 17: 0
  cytokine, GO annotation line 17 of 17: 0
  defense response, GO annotation line 1 of 11: 0
  defense response, GO annotation line 2 of 11: 0
  defense response, GO annotation line 3 of 11: 0
  defense response, GO annotation line 4 of 11: 0
  defense response, GO annotation line 5 of 11: 0
  defense response, GO annotation line 6 of 11: 0
  defense response, GO annotation line 7 of 11: 0
  defense response, GO annotation line 8 of 11: 0
  defense response, GO annotation line 9 of 11: 0
  defense response, GO annotation line 10 of 11: 0
  defense response, GO annotation line 11 of 11: 0
  immune response, GO annotation line 1 of 8: 0
  immune response, GO annotation line 2 of 8: 0
  immune response, GO annotation line 3 of 8: 0
  immune response, GO annotation line 4 of 8: 0
  immune response, GO annotation line 5 of 8: 0
  immune response, GO annotation line 6 of 8: 0
  immune response, GO annotation line 7 of 8: 0
  immune response, GO annotation line 8 of 8: 0
  inflammatory response, GO annotation line 1 of 5: 0
  inflammatory response, GO annotation line 2 of 5: 0
  inflammatory response, GO annotation line 3 of 5: 0
  inflammatory response, GO annotation line 4 of 5: 0
  inflammatory response, GO annotation line 5 of 5: 0
  innate immune response, GO annotation line 1 of 6: 0
  innate immune response, GO annotation line 2 of 6: 0
  innate immune response, GO annotation line 3 of 6: 0
  innate immune response, GO annotation line 4 of 6: 0
  innate immune response, GO annotation line 5 of 6: 0
  innate immune response, GO annotation line 6 of 6: 0
  interleukin-6: interleukin-6 production: 0
  interleukin-6: positive regulation of interleukin-6 production: 0
  interleukin-6: regulation of interleukin-6 production: 0
  interleukin-12: interleukin-12 production: 0
  interleukin-12: positive regulation of interleukin-12 production: 0
  interleukin-12: regulation of interleukin-12 production: 0
  migration, GO annotation line 1 of 10: 0
  migration, GO annotation line 2 of 10: 0
  migration, GO annotation line 3 of 10: 0
  migration, GO annotation line 4 of 10: 0
  migration, GO annotation line 5 of 10: 0
  migration, GO annotation line 6 of 10: 0
  migration, GO annotation line 7 of 10: 0
  migration, GO annotation line 8 of 10: 0
  migration, GO annotation line 9 of 10: 0
  migration, GO annotation line 10 of 10: 0
  stress, GO annotation line 1 of 3: 12.9
  stress, GO annotation line 2 of 3: 0
  stress, GO annotation line 3 of 3: 0
  wounding, GO annotation line 1 of 3: 0
  wounding, GO annotation line 2 of 3: 0
  wounding, GO annotation line 3 of 3: 0
